Data reported in US4975434A, “Antiviral and anticancer cyclopentenyl cytosine” (priority 1989, dated 1990).
In brackets after ≈: the same amount, converted by molar mass. Several values for one entry are separate records, joined by “and”; a condition that tells them apart may be missing. Identical values can stand only once. Entries after “also recorded” stand apart in the source; their conditions may differ.

How the values were obtained:
P388 leukemia = assay: In vivo antitumor test, P388 leukemia in mice
[1] = system: Herpes simplex type 1 (TK+), strain E-377; assay: Cytopathogenic inhibition test, HSV-1 TK+; type: cell-based
[2] = system: Cytomegalovirus, strain AD 169; assay: Cytomegalovirus (CMV) Yield Reduction Assay; type: cell-based
[3] = system: vaccinia virus (IHD strain); type: in vivo, mouse (CD-I)
CTP pools = assay: Nucleotide (CTP, UTP, ATP, GTP) levels in treated cells (HL-60); type: cell-based, human
[4] = system: Vesicular Stomatitis virus, strain Indiana; type: cell-based
[5] = system: Influenza (Hong Kong), strain A2 /Aichi/2/68; assay: microbe, parasite or virus in culture; type: cell-based, Influenza virus; host MDCK (Madin Darby canine kidney cells)
[6] = system: Varicella-Zoster virus, isolate DM625; assay: Varicella-Zoster Virus (VZV) Plaque Reduction Assay; type: cell-based
MX-1 Mammary = assay: Human tumor xenograft in athymic mice, MX-1 mammary (subrenal capsule); details: for % Tumor Inhibition: day 0 to 11; for % tumor weight inhibition: Table IV, QD1-9, day 0 to day 11
CTP synthesase = assay: Inhibition of CTP synthesis (CTP synthesase); type: biochemical; details: result in words
[7] = system: Herpes simplex type 1 (TK-), strain HF; assay: microbe, parasite or virus in culture; type: cell-based
[8] = Table II Experiment 1, tumor IP, IP QD1-9, OD 1.0 mg/kg/injection
[9] = Table II Experiment 2, tumor IP, IP QD1-9, OD 1.5 mg/kg/injection

In the case of `Nc1ccn([C@@H]2C=C(CO)[C@@H](O)[C@H]2O)c(=O)n1` [CPE-C], the “% ILS” value (P388 leukemia; [8]) is reported as 88%, the LCK (P388 leukemia; [8]) is reported as 0.9 log and the “% ILS” value (P388 leukemia; [9]) is reported as 69%. The LCK (P388 leukemia; [9]) was 0.1 log, the activity (P388 leukemia; result in words) was “only modest activity” and the IC50 ([1]; Human alphaherpesvirus 1, Vero cells, strain E-377, inhibition of virus-induced cytopathogenic effects, read-out: ID50 (the source's name)) was 0.3 µg/mL (≈ 1.25 µM). For the same compound, the “VR (virus rating)” value ([1]; Vero cells, strain E-377) was 3.8, the antiviral activity ([1]; result in words) was “greater than arabinosyl adenine (ara-A); also recorded: Potent activity” and the log reduction at 0.1 µg/mL ([2]; Human betaherpesvirus 5, 144 h, 0.1 μg/ml, MRC5 cells, read-out: Reduction in Virus Yield) was 0.8. It also gave a log reduction at 0.32 µg/mL ([2]; Human betaherpesvirus 5, 144 h, 0.32 μg/ml, MRC5 cells, read-out: Reduction in Virus Yield) of 1.3, a log reduction at 1 µg/mL ([2]; Human betaherpesvirus 5, 144 h, 1.0 μg/ml, MRC5 cells, read-out: Reduction in Virus Yield) of 1.4 and a log reduction at 3.2 µg/mL ([2]; Human betaherpesvirus 5, 144 h, 3.2 μg/ml, MRC5 cells, read-out: Reduction in Virus Yield) of 1.5. It also gave a log reduction at 10 µg/mL ([2]; Human betaherpesvirus 5, 144 h, 10 μg/ml, MRC5 cells, read-out: Reduction in Virus Yield) of 1.9, a log reduction at 32 µg/mL ([2]; Human betaherpesvirus 5, 144 h, 32 μg/ml, MRC5 cells, read-out: Reduction in Virus Yield) of 2 and a log reduction at 100 µg/mL ([2]; Human betaherpesvirus 5, 144 h, 100 μg/ml, MRC5 cells, read-out: Reduction in Virus Yield) of 2. For the same compound, the log reduction at 320 µg/mL ([2]; Human betaherpesvirus 5, 144 h, 320 μg/ml, MRC5 cells, read-out: Reduction in Virus Yield) was 5.3, the antiviral activity ([2]; result in words) was “Potent activity; also recorded: Activity was observed for both compounds” and the “activity in vivo, mouse tail pox model” value ([3]; 1.5 mg/kg) was “good protection; also recorded: Excellent activity”. For the same compound, the “Pox Count (mean value, 20 mice)” value ([3]; CPE-C 1.5 mg/kg, QD 1-7 subcutaneous, PBS control 45.8) was 0.8, the “CTP levels following drug removal” value (CTP pools; HL-60) was “sustained reduction in CTP levels” and the “level of CTP” value (CTP pools; during CPE-C treatment) was “rapid and pronounced inhibition”. The “half-life for the disappearance of CTP” value (CTP pools; during CPE-C treatment, HL-60) was 1.5 to 2 h, the “level of UTP, ATP or GTP” value (CTP pools; during CPE-C treatment, HL-60) was “not of UTP, ATP or GTP” and the “level of CTP pools” value (CTP pools; treated cells) was “near total abrogation of CTP pools”. The “VR (virus rating)” value ([4]; L929 cells, strain Indiana, two determinations) was 2.4 and 3.0, the “TI (therapeutic index)” value ([4]; minimum toxic drug concentration / ID50, L929 cells) was 0.6 and 0.4 and the antiviral activity ([4]; result in words) was “Good activity; also recorded: Virus ratings greater than two”. For the same compound, the “VR (virus rating)” value [5] was 2.4, the antiviral activity [5] was “Good activity; also recorded: Virus ratings greater than two” and the IC50 ([5]; MDCK, in Canis lupus familiaris, read-out: ID50) was 18.2 µg/mL (≈ 76.1 µM). It also gave an inhibition at 0.01 µg/mL ([6]; Human alphaherpesvirus 3, 144 h, 0.01 μg/ml, Huf cells) of 0%, an inhibition at 0.032 µg/mL ([6]; Human alphaherpesvirus 3, 144 h, 0.032 μg/ml, Huf cells) of 3% and an inhibition at 0.1 µg/mL ([6]; Human alphaherpesvirus 3, 144 h, 0.1 μg/ml, Huf cells) of 21%. For the same compound, the inhibition at 0.32 µg/mL ([6]; Human alphaherpesvirus 3, 144 h, 0.32 μg/ml, Huf cells) was 33%, the inhibition at 1 µg/mL ([6]; Human alphaherpesvirus 3, 144 h, 1.0 μg/ml, Huf cells) was 36% and the inhibition at 3.2 µg/mL ([6]; Human alphaherpesvirus 3, 144 h, 3.2 μg/ml, Huf cells) was 33%. For the same compound, the inhibition at 10 µg/mL ([6]; Human alphaherpesvirus 3, 144 h, 10 μg/ml, Huf cells) was 33%, the inhibition at 100 µg/mL ([6]; Human alphaherpesvirus 3, 144 h, 100 μg/ml, Huf cells) was 41% and the inhibition at 320 µg/mL ([6]; Human alphaherpesvirus 3, 144 h, 320 μg/ml, Huf cells) was 36%. The antiviral activity ([6]; result in words) was “Potent activity; also recorded: Activity was observed for both compounds”, the growth inhibition (MX-1 Mammary) was 100% and the “potency relative to 3DU” value (MX-1 Mammary; MX-1 xenograft) was “about 100 times”. For the same compound, the “% Tumor Inhibition” value (MX-1 Mammary; Table III Experiment 1, SRC, IP QD1-9, OD 1.5 mg/kg/injection) was 100%, the “% Tumor Inhibition” value (MX-1 Mammary; Table III Experiment 2, SRC, IP QD1-9, OD 2.25 mg/kg/injection) was 95% and the “% tumor weight inhibition” value (MX-1 Mammary; CPE-C 1.5 mg/kg) was 94%. The “% tumor weight inhibition” value (MX-1 Mammary; CPE-C 2.25 mg/kg) was 100%, the activity (MX-1 Mammary; result in words) was “complete inhibition of tumor growth” and the “inhibition of CTP synthesis” value (CTP synthesase) was “powerful inhibitors of CTP synthesis”. For the same compound, the “VR (virus rating)” value ([7]; Vero cells, strain HF, two determinations) was 3.8 and 2.7 and the antiviral activity ([7]; result in words) was “greater than arabinosyl adenine (ara-A); also recorded: Potent activity”.
